The conditions of data set [1]: cited from earlier work.
A further data set deals with Fepi. The experiment in a line: Intermittent Light Stimulation (ILS) induced seizures in the photosensitive reflex epileptic chicken model. The format is in vivo. As to the method:
During 21 days, they were exposed to ILS (3 minutes) once a day.
Behavioural activities were observed and time recorded for each phase of the paroxysmal manifestation during controlled intermittent light stimulation: • T0: ILS starts • T1 (time in seconds): neck myoclonus starts • T2 (time in seconds): convulsive phase starts • T3 (time in seconds): convulsive phase ends
The first day they were tested for control and all had ILS induced seizures. […]
During the last 10 days, none of the animals was treated.
The influence of the treatment on the stimulus locked myoclonus and generalized convulsions of the photosensitive GRS was evaluated using generalized linear models implemented in the function glm of the software R, version 2.9.0. The number of seizures for each animal over a given phase of the experiment (with treatment and following treatment) was modeled using a binomial distribution, and linked to factors using the logit function. The delay for seizure initiation, the duration of the myoclonus and the duration of the convulsions were modeled using gamma distributions, and linked to the factors using the identity function. Sex was included as an additive co-factor in the analyses but not significant differences were found.

The test system of the next data set is plasma proteins. As to conditions: cited from earlier work.

Regarding `CC[C@@H](C(N)=O)N1CCCC1=O` [(S)-a-ethyl-2-oxo-1-pyrrolidine acetamide], the “dose range over which the pharmacokinetics are linear” value in data set [1] (in vivo) is 500 to 5000 mg. Besides, the “time to peak plasma concentrations” value in data set [1] (oral administration to fasted subjects) is reported as “one”. Further, in data set [1] (oral, with food), the “decrease of Cmax by food” value is given as 20% and the “delay of Tmax by food” value was 1.5 h. Further, in data set [1] (tablets), the oral bioavailability is reported as 100%. Further, the “time to steady state” value in data set [1] (twice-daily dosing) is recorded as 2 days. Also, the anticonvulsant effect entry in the data set on Fepi (chicken model of the invention) was “has an anticonvulsant effect”. In addition, the “persistence of the effect after the injection period” value in the data set on Fepi (last 10 days without treatment) is “the effect partially persisting few days after the injection period”. The “seizure duration (on average)” value in the data set on Fepi (treated (50, 100 or 200 mg/Kg) homozygous, placebo 16.2 s, p-value 1 e-08) turned out to be 10.7 s. In addition, in the data set with plasma proteins, the “bound to plasma proteins” value is given as “less than 10%”.

The values above are taken from EP2492354A1, “Method for identifying compounds useful in the treatment of photosensitive reflex epilepsy” (Institut National De La Recherche Agronomique (INRA), priority 2011, dated 2012).
